# Source: US20240207446A1, “M6A-COUPLED EFFECTOR PROTEIN EXPRESSION SYSTEM AND METHODS OF MAKING AND USING SAME” (Duke University, priority 2022, published 2024)
# Entries after “also recorded” stand apart in the source; their conditions may differ.
# Key:
# [1] = system: m^6A in cellular mRNA, HEK293T cells; assay: Mass spectrometry of m^6A in purified mRNA; assay type: cell-based, human
# Protocol: Mass spectrometry analysis. Total RNA was extracted as described above, and mRNA was purified using two rounds of oligo(dT) purification with Dynabeads oligo-(dT) mRNA purification kit (Invitrogen), followed by 2 rounds of rRNA depletion using NEBNext rRNA Depletion Kit (V2.0, NEB), and an additional two rounds of oligo(dT) purification with Dynabeads oligo-(dT) mRNA purification kit (Invitrogen). All mRNA purification steps were performed following the manufacturer's instructions. Purified mRNA quality was checked using a Bioanalyzer high sensitivity RNA analysis 6000 pico kit (Agilent). For mass spectrometry analysis, 100-200 ng of purified mRNA was incubated with 2 U of Nuclease P1 (Sigma) with 2.5 mM ZnCl and 25 mM NaCl at 37° C. for 2 hours. mRNA samples were treated with 5 U of antarctic phosphatase (NEB) for 2 h at 37° C. Samples were then processed using the Xevo TQ-S mass spectrometry system. All nucleosides were quantified by retention time and ion mass transitions of 268.2 to 133.2 (A) and 282.2 to 150.1 (m^6A). Data were plotted as a percentage of m^6A relative to A. At least 2 biological replicates were performed for each sample.
# Huh-7 cells = assay: RT-qPCR gene expression in Huh-7 cells; assay type: cell-based, human; conditions: increasing amounts of STM2457 (FIG. 9C)
# Protocol: Sanger sequencing and RT-qPCR. Cells were dissociated in culture using TrypLE (Gibco) treatment for 2 minutes and collected by centrifugation (6,000 rpm, 10 minutes, 4° C.). RNA was extracted using the RNA easy Plus Mini kit (Qiagen) according to the manufacturer's protocol. Extracted RNA was purified for genomic and plasmid DNA contamination by incubation with 1 μL DNase I at 37° C. for 30 minutes, and purified RNA was precipitated in 2.5 volumes of isopropanol overnight. RNA quantification was performed using the Qubit 4.0 fluorometer following the Qubit RNA broad range assay kit (Invitrogen). 500 ng of RNA was used for reverse transcription with the iScript reverse transcription supermix (Biorad) following the manufacturer's protocol. PCR was then used to […] amplify the region of interest in the m^6A sensor mRNA sequence (see Table 2). […] C-to-U editing percentage was calculated using the EditR web server 59. […] 20 μL reactions were set up with 1 μL of cDNA for each sample, in 3 technical replicates. qPCR was performed on a Biorad CFX Duet real-time PCR instrument, and results were analyzed by normalizing threshold cycle of each target gene to 18S rRNA according to established methods^60. […] Error bars represent standard deviation, and statistical significance was calculated using a two-way t-test assuming unequal variance.
# MOLM-13 cells = conditions: AML cell line with high levels of METTL3; cited from earlier work
# m^6A sensor sequence = assay: RT-PCR/Sanger sequencing of C-to-U editing of the m^6A sensor sequence in HEK293T cells; assay type: cell-based, human
# Protocol: (§1) Sanger sequencing and RT-qPCR. Cells were dissociated in culture using TrypLE (Gibco) treatment for 2 minutes and collected by centrifugation (6,000 rpm, 10 minutes, 4° C.). RNA was extracted using the RNA easy Plus Mini kit (Qiagen) according to the manufacturer's protocol. Extracted RNA was purified for genomic and plasmid DNA contamination by incubation with 1 μL DNase I at 37° C. for 30 minutes, and purified RNA was precipitated in 2.5 volumes of isopropanol overnight. RNA quantification was performed using the Qubit 4.0 fluorometer following the Qubit RNA broad range assay kit (Invitrogen). 500 ng of RNA was used for reverse transcription with the iScript reverse transcription supermix (Biorad) following the manufacturer's protocol. PCR was then used to […] amplify the region of interest in the m^6A sensor mRNA sequence (see Table 2). PCR products were column purified before Sanger sequencing using QiaQuick spin columns (Qiagen) and 10 μL reactions were submitted for standard amplicon sequencing (Azenta Life Sciences). C-to-U editing percentage was calculated using the EditR web server 59. To measure gene expression using gene-specific oligos, qPCR was performed using iTaq universal SYBR green Supermix (Biorad). 20 μL reactions were set up with 1 μL of cDNA for each sample, in 3 technical replicates. qPCR was performed on a Biorad CFX Duet real-time PCR instrument, and results were analyzed by normalizing threshold cycle of each target gene to 18S rRNA according to established methods^60. At least 2 biological replicates were used for each sample, and results are plotted as mean relative fold expression comparing treatment to the control group as indicated. Error bars represent standard deviation, and statistical significance was calculated using a two-way t-test assuming unequal variance.
# m^6A reporter mRNA = assay: RT-qPCR of m^6A reporter mRNA abundance in HEK293T cells; assay type: cell-based, human
# Protocol: as §1
# [2] = system: METTL3 (m^6A methylation of the GEMS reporter mRNA), HEK293T cells; assay: GEMS EGFP fluorescence microscopy / quantitative microscopy in HEK293T cells; assay type: cell-based, human
# Protocol: Plasmid Transfection. Transfections were performed using Fugene HD (Promega) according to the manufacturer's instructions. For METTL3 inhibition experiments, cells were treated with 10 μM or 30 μM of STM2457 (MedChemExpress) for 16 hours prior to transfection. Cells were treated with 0.1% DMSO (VWR Life Science) as a control. For experiments using METTL3 degron cells, 0.1 mg/mL of auxin or equivalent volume of H2O (control) was added to the cells for 24 hours prior to plasmid transfection.
# Microscopy. All images were obtained using a Leica DMi8 inverted fluorescence microscope. Images were processed using the Leica LAS X software. 4-5 fields of view were obtained per sample, and representative images were selected for each experiment.
# Quantitative Microscopy. HEK293T cells were plated in 10 cm cell culture-treated dishes at a density of 2.2×10^6 cells per plate and allowed to grow overnight. Cells were then treated with 30 μM of STM2457 or DMSO control for 16 hours. Cells were then transfected with the GEMS-PEST-DsRed plasmid and allowed to grow for an additional 16 hours. Prior to imaging, media was replaced with 1×PBS with 1 μg/mL Hoechst nuclear fluorescent stain (ThermoFisher Scientific) for 30 minutes. Cells were imaged using a Leica DMi8 fluorescence microscope. Images were analyzed by ImageJ image analysis software. First, fluorescence channels were separated and RGB fluorescence channels were converted to grayscale (16-bit). Binary image thresholds were set in relation to DsRed fluorescence signal and background noise was subtracted. Individual cells were selected, and pixel intensities were generated of each individual cell within the field of view. Similar binary image thresholding, cell selection, and intensity datasets were generated for the EGFP image channel. Data were analyzed by dividing EGFP signal intensity for each cell by average DsRed signal intensity. Data were plotted in JMP software (IMP 17.0, SAS Institute Inc.) by normalized EGFP signal intensity for each treatment. Boxplots represent interquartile range of the data and whiskers represent minimum and maximum data points excluding outliers. Statistical significance was calculated using a two-way t-test assuming unequal variance.
# [3] = system: METTL3 (m^6A methylation of the GEMS reporter mRNA), HEK293T cells; assay: Western blot and densitometry (EGFP, EGFP-DHFR) in HEK293T cells expressing GEMS; assay type: cell-based, human
# Protocol: Western blotting. Cells were dissociated in culture plates using TrypLE (Gibco) and collected by centrifugation (6,000 rpm, 10 minutes, 4° C.). Cell pellets were resuspended in 150 μL chilled standard RIPA buffer (1% Triton X-100, 0.1% Sodium Deoxycholate, 0.1% SDS) prepared with the addition of Complete Mini protease inhibitor (Sigma Aldrich) immediately before use. Cells were resuspended and incubated on ice in RIPA buffer for 30 minutes. Cell lysates were cleared by centrifugation (13,000 rpm, 10 minutes, 4° C.) and mixed in a 1:1 ratio with NuPage LDS sample buffer (Invitrogen) with 5% Beta-Mercaptoethanol (Sigma). Samples were separated by gel electrophoresis on NuPage 4-12% Bis-Tris SDS-PAGE gels (Invitrogen), then transferred onto PVDF membranes (Amersham) using semi-dry transfer (Trans-Blot Turbo, Biorad). Membranes were blocked with 4% milk powder in 0.1% PBST and incubated with the appropriate primary antibody overnight at 4° C. Membranes were then washed with 0.1% PBST and incubated for 1 hour at room temperature in secondary antibody. Blots were washed and incubated in chemiluminescent ECL reagent solution (Amersham) then imaged in a ChemiDoc MP imaging system (BioRad) under chemiluminescent and colorimetric light. In western blot images, cyclophilin A is shown as a loading control and all western blots are representative of a minimum of 3 independent biological replicates. The following antibodies were used in this study: GFP tag Polyclonal antibody (Proteintech, 50430-2-AP). Anti-HA rabbit monoclonal antibody (Cell Signaling, 3724). Anti-Cyclophilin A antibody (Cell Signaling, 2175S). Anti-DsRed-Express2 Monoclonal Antibody (Fisher Scientific, CF180014). Anti-METTL3 antibody (abcam, ab195352). Anti-SOCS2 antibody (abcam, ab109245). Anti-p53 (7F5) Rabbit monoclonal antibody (Cell Signaling, 2527S). Recombinant Anti-JAK2 Antibody (abcam, ab108596). Recombinant Anti-STAT5 (phosphorylated Y694) (abcam, ab32364). Anti-STAT5 antibody (Cell Signaling, 25656S). Secondary antibodies used in this study: Goat Anti-Rabbit IgG HRP (Abcam, ab6721), Goat anti-mouse IgG HRP (Fisher Scientific, 62-6520).
# For densitometry analysis, western blot images were quantified using ImageJ software 58. EGFP band intensity was normalized to either EGFP-DHFR or (EGFP+EGFP-DHFR) as indicated in each experiment. Similar densitometry analysis was used to measure total protein production (EGFP+EGFP-DHFR), normalized to the Cyclophilin A loading control. At least two replicates were used for each western blot quantification analysis. Bars are plotted as mean intensity ratio and error bars represent standard deviation.
# [4] = system: m^6A sensor sequence and endogenous ACTB A1222; assay: RT-qPCR-based m^6A quantification in HEK293T cells; assay type: cell-based, human; conditions: METTL3 degron cells, auxin (FIG. 3F)
# Protocol: m^6A detection using RT-qPCR. RNA was extracted and treated with DNase I as described above, and a relative quantification of m^6A by RT-qPCR was adapted from^28. 4 reverse transcription reactions were set up using 150 ng of RNA for each: 2 reactions using BstI polymerase (NEB), and 2 reactions using Superscript reverse transcriptase enzyme (Fisher Scientific). For each reverse transcriptase, one reaction included a primer adjacent (+) to the site being tested (reverse compliment reverse oligo immediately downstream of the site), and the other reaction included a primer that is non-adjacent (−) to the site. The BstI reaction consisted of 10 U BstI polymerase, […], 500 nM oligos (adjacent (+) or non-adjacent (−)), in 1× ThermoPol Buffer. Reactions were incubated in a thermal cycler with the following cycling settings: 3 minutes at 25° C., 30 minutes at 50° C., and 3 minutes at 85° C. Superscript III (SSIII) reactions consisted of 200 U Superscript III, […], 25 mM MgCl2+, 10 mM dNTPs, 500 nM oligos (adjacent or non-adjacent), 2 μL 10× FS Buffer, and water up to 20 μL. […] Threshold cycle values were obtained and relative m^6A was calculated using the formula: 2−(CT Bst(−)−Ct SSIII(−)/Ct Bst(+)−Ct SSIII(+)). […] Error bars represent standard deviation, and statistical significance was calculated using a two-way t-test assuming unequal variance.
compound,measurement,setting,value
STM2457,"m^6A in purified mRNA, mass spectrometry","[1]; HEK293T, STM2457 treatment (FIG. 5H)",depletion of m^6A
same,"SOCS2 mRNA expression, RT-qPCR",Huh-7 cells,dose-dependent increase
same,proliferation and colony formation,MOLM-13 cells,reduced proliferation and colony formation
same,C-to-U editing of the m^6A sensor sequence,"m^6A sensor sequence; HEK293T, 30 μM STM2457, 24 h (FIG. 5J)",reduced C-to-U editing
same,editing of the m^6A sensor sequence,"m^6A sensor sequence; HEK293T, 10 or 30 μM STM2457 (FIG. 5G)",decreased editing with increasing amounts
same,"editing of the m^6A sensor sequence, GEMS with EGFP-PEST","m^6A sensor sequence; HEK293T, increasing amounts of STM2457 (FIG. 5N)",decreased editing with increasing amounts
same,abundance of the m^6A reporter mRNA,"m^6A reporter mRNA; HEK293T, 30 μM STM2457 or DMSO (FIG. 5I)",no significant difference
same,EGFP fluorescence from the GEMS system,"[2]; HEK293T, 30 μM STM2457, 24 h (FIG. 5A)",reduced
same,"EGFP fluorescence intensity, quantitative microscopy","[2]; HEK293T, 30 μM STM2457, EGFP normalized to DsRed (FIG. 5B)",significant reduction
same,m^6A-coupled EGFP fluorescence,"[2]; HEK293T, 10 or 30 μM STM2457, 24 h, DsRed internal control (FIG. 5E)",increased depletion
same,"EGFP signal, GEMS with EGFP-PEST","[2]; HEK293T, 10 or 30 μM STM2457, GEMS-EGFP-PEST, compared to GEMS-EGFP (FIG. 5L)",greater depletion at lower doses
same,EGFP fluorescence / GEMS activity activated by dCas13-GEMS,"[2]; HEK293T, STM2457 for 16 hours, then dCas13-GEMS and gRNAs (FIG. 8F)",abolished; also recorded: decreased
same,"EGFP/EGFP-DHFR ratio, densitometry","[3]; HEK293T, 30 μM STM2457, 24 h (FIG. 5D)",reduced EGFP/EGFP-DHFR ratio
same,"production of EGFP protein, western blot","[3]; HEK293T, 10 or 30 μM STM2457 (FIG. 5F)",decreased production of EGFP protein with increasing doses
same,"EGFP protein, western blot","[3]; HEK293T, STM2457-treated (FIG. 5C)",decreased EGFP protein
same,"production of EGFP protein, western blot, GEMS with EGFP-PEST","[3]; HEK293T, increasing doses of STM2457 (FIG. 5M)",decreased production of EGFP protein with increasing doses
O=C(O)Cc1c[nH]c2ccccc12 [auxin],"m^6A in purified mRNA, mass spectrometry","[1]; METTL3 degron cells, auxin-treated (FIG. 3A)",decrease in m^6A
same,C-to-U editing of the m^6A sensor sequence,"m^6A sensor sequence; METTL3 degron cells, auxin (FIG. 3E)",Editing is reduced
same,"m^6A reporter mRNA expression, RT-qPCR",m^6A reporter mRNA; METTL3 degron cells with and without auxin (FIG. 3G),no significant difference
same,EGFP fluorescence from the GEMS system,"[2]; HEK293T METTL3 degron cells, auxin (FIG. 3B)",reduced EGFP fluorescence
same,total reporter mRNA protein production (EGFP+EGFP-DHFR) relative to cyclophilin A,[3]; METTL3 degron cells expressing GEMS (FIG. 3H),no significant difference
same,"METTL3 and EGFP protein, western blot","[3]; METTL3 degron cells, auxin (FIG. 3C)",loss of METTL3 and EGFP
same,EGFP/EGFP-DHFR ratio,"[3]; METTL3 degron cells, auxin (FIG. 3D)",decrease in EGFP/EGFP-DHFR
same,"m^6A sensor sequence methylation, RT-qPCR",[4],decreased m^6A
C[C@@H]1C[C@@H]([C@H](O)CC2CC(=O)NC(=O)C2)C(=O)[C@@H](C)C1 [cycloheximide],m^6A reporter mRNA levels,"m^6A reporter mRNA; HEK293T with GEMS, cycloheximide 0-120 minutes (FIG. 3I)",no effect
